Laboratory results taken from ChEMBL document CHEMBL5528035, “Design, Synthesis, and Biological Evaluation for First GPX4 and CDK Dual Inhibitors” (J Med Chem, 2024).

What was measured:
HCT-116 = assay: cells; settings: Homo sapiens, HCT-116, 48 h
Description: Antiproliferative activity against human HCT-116 cells assessed as inhibition of cell growth incubated for 48 hrs by CCK-8 assay

[1] = target: CDK6/cyclin D3 (Homo sapiens) (UniProt P30281+Q00534); assay: Inhibition of CDK6/CyclinD3 (unknown origin) at 100 nM preincubated for 15 mins followed by substrate and ATP addition incubated for 10 mins by ADP-glo luminescent assay relative to control; assay type: protein-complex assay; settings: time 25.0 min
HepG2 = assay: cells; settings: Homo sapiens, HepG2, 48 h
Description: Antiproliferative activity against human HepG2 cells assessed as inhibition of cell growth incubated for 48 hrs by CCK-8 assay

MDA-MB-231 = assay: cells; settings: Homo sapiens, MDA-MB-231, 48 h
Description: Antiproliferative activity against human MDA-MB-231 cells assessed as inhibition of cell growth incubated for 48 hrs by CCK-8 assay

A549 = assay: cells; settings: Homo sapiens, A549, 48 h
Description: Antiproliferative activity against human A549 cells assessed as inhibition of cell growth incubated for 48 hrs by CCK-8 assay

[2] = target: CDK2/Cyclin A2 (Homo sapiens) (UniProt P24941+P20248); assay: Inhibition of CDK2/CyclinA2 (unknown origin) at 100 nM preincubated for 15 mins followed by substrate and ATP addition incubated for 10 mins by ADP-glo luminescent assay relative to control; assay type: protein-complex assay; settings: time 25.0 min

IC50 (HCT-116) [µM]	inhibition [1] [%]	IC50 (HepG2) [µM]	IC50 (MDA-MB-231) [µM]	IC50 (A549) [µM]	inhibition [2] [%]	Compound
4.44	40.4	7.16	5.25	5.15	13.5	O=C(CCn1cc(COc2ccc(N(C(=O)CCl)C(C(=O)NCCc3ccccc3)c3cccs3)cc2Cl)nn1)O/N=C1/C(=C2/C(=O)Nc3ccccc32)Nc2ccc(Cl)cc21 (configuration not stated)
7.17	38.5	9	7.46	9.09	31	O=C(CCn1cc(COc2ccc(N(C(=O)CCl)C(C(=O)NCCc3ccccc3)c3cccs3)cc2Cl)nn1)NCCCO/N=C1/C(=C2/C(=O)Nc3cc(Cl)ccc32)Nc2ccccc21 (configuration not stated)
1.49	52.1	2.02	1.2	2.85	22.1	O=C(CCn1cc(COc2ccc(N(C(=O)CCl)C(C(=O)NCCc3ccccc3)c3cccs3)cc2Cl)nn1)NCCCO/N=C1/C(=C2/C(=O)Nc3ccccc32)Nc2ccccc21 (configuration not stated)
> 10	12.8	> 10	> 10	> 10	14	O=C(CCn1cc(COc2ccc(N(C(=O)CCl)C(C(=O)NCCc3ccccc3)c3cccs3)cc2Cl)nn1)NCCCO/N=C1/C(=C2/C(=O)Nc3cc(Cl)c(Cl)cc32)Nc2ccccc21 (configuration not stated)
9.63	16.1	> 10	> 10	8.32	1.12	O=C(CCn1cc(COc2ccc(N(C(=O)CCl)C(C(=O)NCCc3ccccc3)c3cccs3)cc2Cl)nn1)NCCCO/N=C1/C(=C2/C(=O)Nc3cc(F)c(F)cc32)Nc2ccccc21 (configuration not stated)
> 10	24.4	> 10	> 10	> 10	10.5	O=C(CCn1cc(COc2ccc(N(C(=O)CCl)C(C(=O)NCCc3ccccc3)c3cccs3)cc2Cl)nn1)O/N=C1/C(=C2/C(=O)Nc3ccccc32)Nc2cc(F)c(F)cc21 (configuration not stated)
2.91	36.8	4.12	3.96	6.6	28.9	O=C(CCn1cc(COc2ccc(N(C(=O)CCl)C(C(=O)NCCc3ccccc3)c3cccs3)cc2Cl)nn1)NCCCO/N=C1/C(=C2/C(=O)Nc3cc(F)ccc32)Nc2ccccc21 (configuration not stated)
7.32	37.1	7.51	7.78	6.27	8.53	O=C(CCn1cc(COc2ccc(N(C(=O)CCl)C(C(=O)NCCc3ccccc3)c3cccs3)cc2Cl)nn1)O/N=C1/C(=C2/C(=O)Nc3ccccc32)Nc2cc(Cl)ccc21 (configuration not stated)
> 10	10.4	> 10	> 10	> 10	5.9	O=C(CCn1cc(COc2ccc(N(C(=O)CCl)C(C(=O)NCCc3ccccc3)c3cccs3)cc2Cl)nn1)O/N=C1/C(=C2/C(=O)Nc3ccccc32)Nc2cc(Cl)c(Cl)cc21 (configuration not stated)
6.97	22	8.36	4.65	7.04	14.1	COc1ccc2c(c1)C(=N\OC(=O)CCn1cc(COc3ccc(N(C(=O)CCl)C(C(=O)NCCc4ccccc4)c4cccs4)cc3Cl)nn1)/C(=C1/C(=O)Nc3ccccc31)N2 (configuration not stated)
4.25	21.4	5.58	3.24	6.37	19.6	O=C(CCn1cc(COc2ccc(N(C(=O)CCl)C(C(=O)NCCc3ccccc3)c3cccs3)cc2Cl)nn1)O/N=C1/C(=C2/C(=O)Nc3ccccc32)Nc2ccc(F)cc21 (configuration not stated)
4.25	39.4	4.83	5.65	2.67	28.1	O=C(CCn1cc(COc2ccc(N(C(=O)CCl)C(C(=O)NCCc3ccccc3)c3cccs3)cc2Cl)nn1)NCCCO/N=C1/C(=C2/C(=O)Nc3ccc(Cl)cc32)Nc2ccccc21 (configuration not stated)
7.45	46.3	8.18	7.89	7.72	8.89	O=C(CCn1cc(COc2ccc(N(C(=O)CCl)C(C(=O)NCCc3ccccc3)c3cccs3)cc2Cl)nn1)O/N=C1/C(=C2/C(=O)Nc3ccccc32)Nc2ccccc21 (configuration not stated)
> 10	4.65	> 10	> 10	> 10	4.02	O=C(CCn1cc(COc2ccc(N(C(=O)CCl)C(C(=O)NCCc3ccccc3)c3cccs3)cc2Cl)nn1)NCCCO/N=C1/C(=C2/C(=O)Nc3cc(Br)c(Br)cc32)Nc2ccccc21 (configuration not stated)
> 10	9.29	> 10	> 10	> 10	1.46	O=C(CCn1cc(COc2ccc(N(C(=O)CCl)C(C(=O)NCCc3ccccc3)c3cccs3)cc2Cl)nn1)O/N=C1/C(=C2/C(=O)Nc3ccccc32)Nc2cc(Br)c(Br)cc21 (configuration not stated)
4.03	47	7.88	3.88	4.6	12.6	COc1ccc2c(c1)NC(=C1\C(=O)Nc3ccccc31)/C2=N/OC(=O)CCn1cc(COc2ccc(N(C(=O)CCl)C(C(=O)NCCc3ccccc3)c3cccs3)cc2Cl)nn1 (configuration not stated)
1.99	36.2	4.92	1.64	1.88	3.17	O=C(CCn1cc(COc2ccc(N(C(=O)CCl)C(C(=O)NCCc3ccccc3)c3cccs3)cc2Cl)nn1)NCCCO/N=C1/C(=C2/C(=O)Nc3ccc(F)cc32)Nc2ccccc21 (configuration not stated)
6.81	29.7	8.19	7.12	6.69	9.85	O=C(CCn1cc(COc2ccc(N(C(=O)CCl)C(C(=O)NCCc3ccccc3)c3cccs3)cc2Cl)nn1)O/N=C1/C(=C2/C(=O)Nc3ccccc32)Nc2cc(F)ccc21 (configuration not stated)
8.77	21.3	> 10	> 10	> 10	15.5	O=C(CCn1cc(COc2ccc(N(C(=O)CCl)C(C(=O)NCCc3ccccc3)c3cccs3)cc2Cl)nn1)NCCCO/N=C1/C(=C2/C(=O)Nc3ccc(Br)cc32)Nc2ccccc21 (configuration not stated)
1.96	40	4.66	2.01	4.09	26.6	COc1ccc2c(c1)/C(=C1/Nc3ccccc3/C1=N\OCCCNC(=O)CCn1cc(COc3ccc(N(C(=O)CCl)C(C(=O)NCCc4ccccc4)c4cccs4)cc3Cl)nn1)C(=O)N2 (configuration not stated)
> 10	34.9	> 10	> 10	> 10	13.3	O=C(CCn1cc(COc2ccc(N(C(=O)CCl)C(C(=O)NCCc3ccccc3)c3cccs3)cc2Cl)nn1)O/N=C1/C(=C2/C(=O)Nc3ccccc32)Nc2ccc(Br)cc21 (configuration not stated)
> 10	14.7	> 10	> 10	> 10	5.41	O=C(CCn1cc(COc2ccc(N(C(=O)CCl)C(C(=O)NCCc3ccccc3)c3cccs3)cc2Cl)nn1)O/N=C1/C(=C2/C(=O)Nc3ccccc32)Nc2cc(Br)ccc21 (configuration not stated)
